{"source": "patent US20180161314A1", "about": "“Methods for Treating Hyperuricemia and Related Diseases” (Ardea Biosciences, Inc., priority 2010, published 2018)", "key": {"healthy adult subjects": {"test_system": "healthy adult subjects", "assay": "Drug 1 / febuxostat cross-over interaction study in healthy adult subjects (Examples 10-12)", "assay_type": "in vivo, human", "details": "for % serum uric acid change, Mean: drug 1 200 mg qd, febuxostat 40 mg qd", "from_the_text": "Study Objectives • To compare the multiple-dose pharmacokinetics of febuxostat in the absence versus presence of drug 1 co-administration. • To compare the multiple-dose pharmacokinetics of drug 1 in the absence versus presence of febuxostat co-administration. • To measure the effects of drug 1 and febuxostat, both alone and in combination, on serum uric acid concentrations and amounts of urate excreted into urine. • To evaluate the safety and tolerability of multiple-doses of drug 1 and febuxostat, both alone or in combination.\nThe study is a two or three-panel, placebo-controlled (for drug 1), double-blinded (for drug 1 and matched placebo), randomized, cross-over study with up to 54 healthy adult subjects. Each panel consisting of 18 subjects is sequentially enrolled, starting with Panel 1 (200 mg once daily dose of drug 1 or placebo), followed by Panel 2 (400 mg once daily dose of drug 1 or placebo), and followed by optional Panel 3 (100 mg to 600 mg once daily dose of drug 1 or placebo). The placebo control is included in this study to better assess safety and tolerability and the serum urate lowering effect of drug 1 in combination with febuxostat. Serum urate levels may be influenced by frequent blood draws and meal contents; therefore, the true effect on serum urate levels can be determined by correcting for placebo (subtract serum urate effect in placebo subjects from serum urate effect in active subjects).\nSubjects in each panel are randomly assigned to one of two treatment sequences (Sequence A or B) after all Baseline (Day −1) procedures have been completed. Each treatment sequence within a panel consists of 9 subjects randomly assigned to receive drug 1 (6 of 9 subjects) or matching placebo (3 of 9 subjects) in a double-blinded fashion. For each treatment sequence, single-agent drug treatment is administered on Days 1 to 7 (either open-label febuxostat or double-blinded drug 1 or matched placebo by random assignment), followed by combination treatment on Days 8 to 14, and completing with the alternative single-agent drug treatment on Days 15 to 21, as follows (Panel 1 shown in FIG. 2):\nSequence A: Days 1-7: Febuxostat, 40 mg (once daily) • Days 8 to 14: drug 1, 200 mg or placebo in combination with febuxostat (once daily) • Days 15-21: drug 1, 200 mg, or placebo (once daily) Sequence B: Days 1-7: drug 1, 200 mg, or placebo (once daily) • Days 8 to 14: drug 1, 200 mg or placebo in combination with febuxostat (once daily) • Days 15-21: Febuxostat, 40 mg (once daily) […]\nSerial blood samples for PK and PD assessments are collected up to 24 hours after dosing on Days 7, 14, and 21. Urine (total catch) for assays of drug 1, creatinine, and uric acid are collected starting on Day −1 (pre-treatment baseline) and after dosing on Days 7, 14, and 21. Final safety assessments are completed when subjects return to the clinic at 7±1 days after discharge from the clinic on Day 22 (Follow-Up visit on Day 29). The total volume of blood collected from each subject is approximately 518 mL.\nScreening procedures to determine subject eligibility are performed 28 days before the first dose of study drug (Day 1). A total of up to 54 subjects enrolled in up to 3 panels consisting of 2 sequences each, with 9 subjects per sequence (18 subjects per panel). Subjects withdrawing after dosing are not replaced.\nSubjects in Panel 1 receive a 200 mg dose of drug 1 or placebo once daily for 14 days and a 40 mg dose of febuxostat once daily for 14 days. Subjects in Panel 2 receive a 400 mg dose of drug 1 or placebo once daily for 14 days and a 40 mg dose of febuxostat once daily for 14 days. Subjects in Panel 3 receive a 100-600 mg dose of drug 1 or placebo once daily for 14 days and a 40 mg dose of febuxostat once daily for 14 days.\nSubjects in Sequence A begin dosing on Day 1 with febuxostat and take their first dose of drug 1 or placebo on Day 8. […]"}, "xanthine oxidase": {"biological_target": "xanthine oxidase (Homo sapiens, UniProt P47989)", "sequence (P47989 whole entry, species assumed)": "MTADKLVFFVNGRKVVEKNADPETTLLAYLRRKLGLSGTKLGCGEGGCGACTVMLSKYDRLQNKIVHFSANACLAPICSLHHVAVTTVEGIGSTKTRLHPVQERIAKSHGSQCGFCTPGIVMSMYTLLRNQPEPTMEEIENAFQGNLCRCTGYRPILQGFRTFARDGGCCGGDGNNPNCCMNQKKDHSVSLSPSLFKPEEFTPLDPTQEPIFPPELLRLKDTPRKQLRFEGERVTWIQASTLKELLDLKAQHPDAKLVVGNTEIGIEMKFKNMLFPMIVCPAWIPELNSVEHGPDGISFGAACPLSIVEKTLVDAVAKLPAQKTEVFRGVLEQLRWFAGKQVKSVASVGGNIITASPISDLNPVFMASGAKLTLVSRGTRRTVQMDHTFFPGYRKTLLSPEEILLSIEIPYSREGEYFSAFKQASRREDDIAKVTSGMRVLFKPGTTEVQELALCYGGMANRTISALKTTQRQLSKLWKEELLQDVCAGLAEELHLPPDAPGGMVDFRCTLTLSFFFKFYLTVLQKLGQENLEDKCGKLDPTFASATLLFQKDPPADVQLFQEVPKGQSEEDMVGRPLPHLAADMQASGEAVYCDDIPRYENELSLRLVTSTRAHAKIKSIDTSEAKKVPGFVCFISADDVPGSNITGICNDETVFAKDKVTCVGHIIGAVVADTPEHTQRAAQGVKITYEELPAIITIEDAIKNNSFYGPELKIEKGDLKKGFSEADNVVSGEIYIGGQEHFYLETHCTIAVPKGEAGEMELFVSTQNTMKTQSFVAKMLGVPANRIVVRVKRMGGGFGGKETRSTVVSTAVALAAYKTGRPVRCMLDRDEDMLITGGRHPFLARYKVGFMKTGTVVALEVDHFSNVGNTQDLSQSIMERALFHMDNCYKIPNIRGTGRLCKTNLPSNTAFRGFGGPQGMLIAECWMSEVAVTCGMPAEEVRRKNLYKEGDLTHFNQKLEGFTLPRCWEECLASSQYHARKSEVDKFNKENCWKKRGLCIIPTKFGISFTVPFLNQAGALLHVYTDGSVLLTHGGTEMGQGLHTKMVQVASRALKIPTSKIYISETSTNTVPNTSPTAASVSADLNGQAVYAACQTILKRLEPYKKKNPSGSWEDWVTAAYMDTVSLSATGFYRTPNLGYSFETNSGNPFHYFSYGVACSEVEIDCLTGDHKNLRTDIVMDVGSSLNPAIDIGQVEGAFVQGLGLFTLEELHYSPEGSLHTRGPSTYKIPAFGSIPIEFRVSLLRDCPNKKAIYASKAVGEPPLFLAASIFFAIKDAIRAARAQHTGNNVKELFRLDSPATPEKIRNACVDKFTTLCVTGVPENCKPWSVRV", "details": "cited from earlier work"}, "[1]": {"details": "Week 1, Drug 1 200 mg alone, febuxostat 40 mg alone"}, "[2]": {"details": "Week 3, Drug 1 200 mg alone, febuxostat 40 mg alone"}}, "data": [{"smiles": "O=C(O)CSc1nnc(Br)n1-c1ccc(C2CC2)c2ccccc12", "note": "[Drug 1, Sodium 2-(5-bromo-4-(4-cyclopropylnaphthalen-1-yl)-4H-1,2,4-triazol-3-ylthio)acetate]", "values": [{"measurement": "serum uric acid change from baseline, daily", "setting": "healthy adult subjects; Day 1, Drug 1 200 mg, FBX 40 mg", "value": "−7.4", "unit": "%"}, {"measurement": "serum uric acid change from baseline, daily", "setting": "healthy adult subjects; Day 1, Drug 1 400 mg", "value": "−5.5", "unit": "%"}, {"measurement": "% serum uric acid change, Mean", "setting": "healthy adult subjects; Day 1", "value": "−14.8", "unit": "%"}, {"measurement": "serum uric acid change from baseline, daily", "setting": "healthy adult subjects; Day 2, Drug 1 200 mg, FBX 40 mg", "value": "−22.3", "unit": "%"}, {"measurement": "serum uric acid change from baseline, daily", "setting": "healthy adult subjects; Day 2, Drug 1 400 mg", "value": "−28.9", "unit": "%"}, {"measurement": "% serum uric acid change, Mean", "setting": "healthy adult subjects; Day 2", "value": "−26.3", "unit": "%"}, {"measurement": "serum uric acid change from baseline, daily", "setting": "healthy adult subjects; Day 3, Drug 1 200 mg, FBX 40 mg", "value": "−32.4", "unit": "%"}, {"measurement": "serum uric acid change from baseline, daily", "setting": "healthy adult subjects; Day 3, Drug 1 400 mg", "value": "−33.3", "unit": "%"}, {"measurement": "% serum uric acid change, Mean", "setting": "healthy adult subjects; Day 3", "value": "−34.7", "unit": "%"}, {"measurement": "serum uric acid change from baseline, daily", "setting": "healthy adult subjects; Day 4, Drug 1 200 mg, FBX 40 mg", "value": "−37.7", "unit": "%"}, {"measurement": "serum uric acid change from baseline, daily", "setting": "healthy adult subjects; Day 4, Drug 1 400 mg", "value": "−36.2", "unit": "%"}, {"measurement": "% serum uric acid change, Mean", "setting": "healthy adult subjects; Day 4", "value": "−31.6", "unit": "%"}, {"measurement": "serum uric acid change from baseline, daily", "setting": "healthy adult subjects; Day 5, Drug 1 200 mg, FBX 40 mg", "value": "−36", "unit": "%"}, {"measurement": "serum uric acid change from baseline, daily", "setting": "healthy adult subjects; Day 5, Drug 1 400 mg", "value": "−37.3", "unit": "%"}, {"measurement": "% serum uric acid change, Mean", "setting": "healthy adult subjects; Day 5", "value": "−31.3", "unit": "%"}, {"measurement": "serum uric acid change from baseline, daily", "setting": "healthy adult subjects; Day 6, Drug 1 200 mg, FBX 40 mg", "value": "−39.1", "unit": "%"}, {"measurement": "serum uric acid change from baseline, daily", "setting": "healthy adult subjects; Day 6, Drug 1 400 mg", "value": "−45.6", "unit": "%"}, {"measurement": "% serum uric acid change, Mean", "setting": "healthy adult subjects; Day 6", "value": "−36.2", "unit": "%"}, {"measurement": "serum uric acid change from baseline, daily", "setting": "healthy adult subjects; Day 7, Drug 1 200 mg, FBX 40 mg", "value": "−41.2", "unit": "%"}, {"measurement": "serum uric acid change from baseline, daily", "setting": "healthy adult subjects; Day 7, Drug 1 400 mg", "value": "−48.8", "unit": "%"}, {"measurement": "% serum uric acid change, Mean", "setting": "healthy adult subjects; Day 7", "value": "−40.7", "unit": "%"}, {"measurement": "serum uric acid change from baseline, daily", "setting": "healthy adult subjects; Day 8, Drug 1 200 mg, FBX 40 mg, alone or combined as labelled", "value": "−38.9", "unit": "%"}, {"measurement": "serum uric acid change from baseline, daily", "setting": "healthy adult subjects; Day 8, Drug 1 400 mg, alone or + FBX 40 mg as labelled", "value": "−42.5", "unit": "%"}, {"measurement": "% serum uric acid change, Mean", "setting": "healthy adult subjects; Day 8", "value": "−37.6", "unit": "%"}, {"measurement": "serum uric acid change from baseline, daily", "setting": "healthy adult subjects; Day 15, Drug 1 200 mg, FBX 40 mg, alone or combined as labelled", "value": "−54.8", "unit": "%"}, {"measurement": "serum uric acid change from baseline, daily", "setting": "healthy adult subjects; Day 15, Drug 1 400 mg, alone or + FBX 40 mg as labelled", "value": "−68.1", "unit": "%"}, {"measurement": "serum uric acid change from baseline, daily", "setting": "healthy adult subjects; Day 16, Drug 1 200 mg alone (week 3), FBX 40 mg alone", "value": "−42.5", "unit": "%"}, {"measurement": "serum uric acid change from baseline, daily", "setting": "healthy adult subjects; Day 16, Drug 1 400 mg alone (week 3)", "value": "−53.4", "unit": "%"}, {"measurement": "serum uric acid change from baseline, daily", "setting": "healthy adult subjects; Day 17, Drug 1 200 mg alone (week 3), FBX 40 mg alone", "value": "−37.5", "unit": "%"}, {"measurement": "serum uric acid change from baseline, daily", "setting": "healthy adult subjects; Day 17, Drug 1 400 mg alone (week 3)", "value": "−44.8", "unit": "%"}, {"measurement": "serum uric acid change from baseline, daily", "setting": "healthy adult subjects; Day 18, Drug 1 200 mg alone (week 3), FBX 40 mg alone", "value": "−32.8", "unit": "%"}, {"measurement": "serum uric acid change from baseline, daily", "setting": "healthy adult subjects; Day 18, Drug 1 400 mg alone (week 3)", "value": "−40.7", "unit": "%"}, {"measurement": "serum uric acid change from baseline, daily", "setting": "healthy adult subjects; Day 19, Drug 1 200 mg alone (week 3), FBX 40 mg alone", "value": "−25.9", "unit": "%"}, {"measurement": "serum uric acid change from baseline, daily", "setting": "healthy adult subjects; Day 19, Drug 1 400 mg alone (week 3)", "value": "−33.8", "unit": "%"}, {"measurement": "serum uric acid change from baseline, daily", "setting": "healthy adult subjects; Day 20, Drug 1 200 mg alone (week 3), FBX 40 mg alone", "value": "−33", "unit": "%"}, {"measurement": "serum uric acid change from baseline, daily", "setting": "healthy adult subjects; Day 20, Drug 1 400 mg alone (week 3)", "value": "−40", "unit": "%"}, {"measurement": "serum uric acid change from baseline, daily", "setting": "healthy adult subjects; Day 21, Drug 1 200 mg alone (week 3), FBX 40 mg alone", "value": "−32.4", "unit": "%"}, {"measurement": "serum uric acid change from baseline, daily", "setting": "healthy adult subjects; Day 21, Drug 1 400 mg alone (week 3)", "value": "−46.4", "unit": "%"}, {"measurement": "serum uric acid change from baseline, daily", "setting": "healthy adult subjects; Day 22, Drug 1 200 mg alone (week 3), FBX 40 mg alone", "value": "−32.8", "unit": "%"}, {"measurement": "serum uric acid change from baseline, daily", "setting": "healthy adult subjects; Day 22, Drug 1 400 mg alone (week 3)", "value": "−41.3", "unit": "%"}, {"measurement": "Absolute sUA reduction from baseline, Intraday peak", "setting": "healthy adult subjects; [1]", "value": -3.1, "unit": "mg/dL"}, {"measurement": "Absolute sUA reduction from baseline, Trough", "setting": "healthy adult subjects; [1]", "value": -2.4, "unit": "mg/dL"}, {"measurement": "Percent sUA reduction from baseline, Intraday peak", "setting": "healthy adult subjects; [1]", "value": "−50.4", "unit": "%"}, {"measurement": "Percent sUA reduction from baseline, Trough", "setting": "healthy adult subjects; [1]", "value": "−39.7", "unit": "%"}, {"measurement": "Absolute sUA reduction from baseline, Intraday peak", "setting": "healthy adult subjects; Week 1, Drug 1 400 mg alone", "value": -4.2, "unit": "mg/dL"}, {"measurement": "Absolute sUA reduction from baseline, Trough", "setting": "healthy adult subjects; Week 1, Drug 1 400 mg alone", "value": -3.4, "unit": "mg/dL"}, {"measurement": "Percent sUA reduction from baseline, Intraday peak", "setting": "healthy adult subjects; Week 1, Drug 1 400 mg alone", "value": "−60.7", "unit": "%"}, {"measurement": "Percent sUA reduction from baseline, Trough", "setting": "healthy adult subjects; Week 1, Drug 1 400 mg alone", "value": "−48.5", "unit": "%"}, {"measurement": "Absolute sUA reduction from baseline, Intraday peak", "setting": "healthy adult subjects; [2]", "value": -2.8, "unit": "mg/dL"}, {"measurement": "Absolute sUA reduction from baseline, Trough", "setting": "healthy adult subjects; [2]", "value": -2.0, "unit": "mg/dL"}, {"measurement": "Percent sUA reduction from baseline, Intraday peak", "setting": "healthy adult subjects; [2]", "value": "−48.5", "unit": "%"}, {"measurement": "Percent sUA reduction from baseline, Trough", "setting": "healthy adult subjects; [2]", "value": "−34.7", "unit": "%"}, {"measurement": "Absolute sUA reduction from baseline, Intraday peak", "setting": "healthy adult subjects; Week 3, Drug 1 400 mg alone", "value": -3.6, "unit": "mg/dL"}, {"measurement": "Absolute sUA reduction from baseline, Trough", "setting": "healthy adult subjects; Week 3, Drug 1 400 mg alone", "value": -2.9, "unit": "mg/dL"}, {"measurement": "Percent sUA reduction from baseline, Intraday peak", "setting": "healthy adult subjects; Week 3, Drug 1 400 mg alone", "value": "−56.9", "unit": "%"}, {"measurement": "Percent sUA reduction from baseline, Trough", "setting": "healthy adult subjects; Week 3, Drug 1 400 mg alone", "value": "−45.5", "unit": "%"}, {"measurement": "Inhibition of xanthine oxidase", "setting": "xanthine oxidase", "value": "does not significantly inhibit"}]}]}
